# In patent publication US12097192B2 (Corcept Therapeutics Incorporated, priority 2019, dated 2024):
# Columns and labels:
# [1] = Relacorilant in healthy subjects (human volunteers): tolerability and steady state; assay type: in vivo
# [2] = system: Cushing's syndrome patients; test: Cushing's syndrome patient study: coagulation factors, platelets, aPTT; assay type: in vivo, human
# Source text: All patients gave informed consent before participating in any study-related procedures. […] The study protocol called for patient visits to the study site at screening, on Day 1 (baseline), Weeks 2, 4, 6, 8, 10, and 12, and after a 4-week follow-up period for Group 1. For Group 2, the protocol called for patient visits to the study site at screening, on Day 1 (baseline), Weeks 2, 4, 6, 8, 10, 12, 14, and 16, and after a 4-week follow-up period. Patient dosing will be done at home, except on days of study visits. […] The safety protocol also included assessments by physical examination findings, vital signs, ECG results, pregnancy tests, clinical laboratory test results (hematology and chemistry panels), adverse events (AEs), and concomitant medications. […] It ignores noncompliance, protocol deviations, withdrawal, and anything that happens after randomization. In contrast, per-protocol (PP) analysis refers to inclusion in the analysis of only those patients who strictly adhered to the protocol. The PP analysis provides an estimate of the true efficacy of an intervention, i.e., among those who completed the treatment as planned.
# [3] = target: T1, progesterone receptor (Homo sapiens, UniProt P06401); test: Progesterone receptor affinity / binding
# T1 sequence (P06401 1-933): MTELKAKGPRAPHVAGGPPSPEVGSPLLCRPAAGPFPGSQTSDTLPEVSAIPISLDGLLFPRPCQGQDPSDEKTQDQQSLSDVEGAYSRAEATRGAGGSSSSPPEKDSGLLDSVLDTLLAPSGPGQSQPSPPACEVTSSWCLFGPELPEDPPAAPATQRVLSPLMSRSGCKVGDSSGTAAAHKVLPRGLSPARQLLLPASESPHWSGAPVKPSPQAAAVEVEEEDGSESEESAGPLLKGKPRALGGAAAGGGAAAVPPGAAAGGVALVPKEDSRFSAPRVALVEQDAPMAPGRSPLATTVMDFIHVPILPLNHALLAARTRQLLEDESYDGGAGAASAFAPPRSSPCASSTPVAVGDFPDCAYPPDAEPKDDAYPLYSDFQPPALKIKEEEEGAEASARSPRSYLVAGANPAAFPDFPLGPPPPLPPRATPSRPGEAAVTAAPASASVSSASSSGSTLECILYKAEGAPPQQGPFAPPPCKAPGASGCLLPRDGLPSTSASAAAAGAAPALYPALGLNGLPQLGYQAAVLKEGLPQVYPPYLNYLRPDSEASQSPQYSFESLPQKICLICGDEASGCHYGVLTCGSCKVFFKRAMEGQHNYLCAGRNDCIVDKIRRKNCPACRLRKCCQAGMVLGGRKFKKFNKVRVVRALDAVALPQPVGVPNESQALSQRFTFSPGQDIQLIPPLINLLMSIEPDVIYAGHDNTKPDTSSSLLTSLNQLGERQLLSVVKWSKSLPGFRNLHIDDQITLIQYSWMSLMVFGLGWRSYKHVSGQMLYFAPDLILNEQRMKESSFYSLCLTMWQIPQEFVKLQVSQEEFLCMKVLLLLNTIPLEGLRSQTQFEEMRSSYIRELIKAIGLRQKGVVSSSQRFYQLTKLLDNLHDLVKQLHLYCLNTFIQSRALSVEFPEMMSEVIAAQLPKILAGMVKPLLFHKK
# [4] = Abnormal at Baseline, mITT, Group 1 (100-200 mg/day, 12 weeks)
# [5] = Abnormal at Baseline, mITT, Group 2 (250-400 mg/day, 16 weeks)
# [6] = Abnormal at Baseline, mITT, Overall
# [7] = Abnormal at Baseline, mPP, Group 1 (100-200 mg/day, 12 weeks)
# [8] = Abnormal at Baseline, mPP, Group 2 (250-400 mg/day, 16 weeks)
# [9] = Abnormal at Baseline, mPP, Overall
# [10] = All Subjects, mITT, Group 1 (100-200 mg/day, 12 weeks)
# [11] = All Subjects, mITT, Group 2 (250-400 mg/day, 16 weeks)
# [12] = All Subjects, mPP, Group 1 (100-200 mg/day, 12 weeks)
# [13] = All Subjects, mPP, Group 2 (250-400 mg/day, 16 weeks)
smiles,measurement,setting,value
"Cn1cc(S(=O)(=O)N2CCC3=Cc4c(cnn4-c4ccc(F)cc4)C[C@]3(C(=O)c3cc(C(F)(F)F)ccn3)C2)cn1 [relacorilant, (R)-(1-(4-fluorophenyl)-6-((1-methyl-1H-pyrazol-4-yl)sulfonyl)-4,4a,5,6,7,8-hexahydro-1H-pyrazolo[3,4-g]isoquinolin-4a-yl) (4-(trifluoromethyl)pyridin-2-yl)methanone]",tolerability of 14 days of dosing,"[1]; human subjects, 14 days at 50 mg, 150 mg and 250 mg",well-tolerated
same,achievement of steady state levels,"[1]; human volunteers, daily dosing",≤ 7 days
same,tolerability of single doses,"[1]; human, in vivo",well-tolerated
same,platelet count,"[1]; some healthy subjects, non-dose-dependent, resolved by study end",transient reduction in platelet count
same,adverse events at 500 mg,[1]; some subjects who received 500-mg relacorilant,(non-serious) musculoskeletal adverse events
same,adverse events with repeat doses,"[1]; some subjects, repeat doses up to 250 mg",mild to moderate musculoskeletal AEs
same,Factor IX mean change from Baseline to Last Observed,[2]; [4],−40.8%
same,Factor X mean change from Baseline to Last Observed,[2]; [4],−15.8%
same,Thrombin-Antithrombin mean change from Baseline to Last Observed,[2]; [4],1.61 µg/L
same,Factor IX mean change from Baseline to Last Observed,[2]; [5],−4.2%
same,Factor X mean change from Baseline to Last Observed,[2]; [5],−22%
same,Thrombin-Antithrombin mean change from Baseline to Last Observed,[2]; [5],-9.83 µg/L
same,von Willebrand Factor mean change from Baseline to Last Observed,[2]; [5],−18.5%
same,Factor IX mean change from Baseline to Last Observed,[2]; [6],−22.5%
same,Factor X mean change from Baseline to Last Observed,[2]; [6],−18.13%
same,Thrombin-Antithrombin mean change from Baseline to Last Observed,[2]; [6],-3.88 µg/L
same,von Willebrand Factor mean change from Baseline to Last Observed,[2]; [6],−18.5%
same,Factor IX mean change from Baseline to Last Observed,[2]; [7],−40.8%
same,Factor X mean change from Baseline to Last Observed,[2]; [7],−15.8%
same,Thrombin-Antithrombin mean change from Baseline to Last Observed,[2]; [7],1.61 µg/L
same,Factor IX mean change from Baseline to Last Observed,[2]; [8],−4.2%
same,Factor X mean change from Baseline to Last Observed,[2]; [8],−22%
same,Thrombin-Antithrombin mean change from Baseline to Last Observed,[2]; [8],-9.83 µg/L
same,von Willebrand Factor mean change from Baseline to Last Observed,[2]; [8],−18.5%
same,Factor IX mean change from Baseline to Last Observed,[2]; [9],−22.5%
same,Factor X mean change from Baseline to Last Observed,[2]; [9],−18.13%
same,Thrombin-Antithrombin mean change from Baseline to Last Observed,[2]; [9],-3.88 µg/L
same,von Willebrand Factor mean change from Baseline to Last Observed,[2]; [9],−18.5%
same,Factor IX mean change from Baseline to Last Observed,[2]; [10],−11.59%
same,Factor VIII mean change from Baseline to Last Observed,[2]; [10],−11.94%
same,Factor X mean change from Baseline to Last Observed,[2]; [10],−0.06%
same,Platelet Count mean change from Baseline to Last Observed,[2]; [10],−62.82 10^9/L
same,Thrombin-Antithrombin mean change from Baseline to Last Observed,[2]; [10],1.48 µg/L
same,aPTT mean change from Baseline to Last Observed,[2]; [10],2.24 s
same,von Willebrand Factor mean change from Baseline to Last Observed,[2]; [10],2.88%
same,Factor IX mean change from Baseline to Last Observed,[2]; [11],6.44%
same,Factor VIII mean change from Baseline to Last Observed,[2]; [11],−26.38%
same,Factor X mean change from Baseline to Last Observed,[2]; [11],−8.88%
same,Platelet Count mean change from Baseline to Last Observed,[2]; [11],−74.82 10^9/L
same,Thrombin-Antithrombin mean change from Baseline to Last Observed,[2]; [11],-7.13 µg/L
same,aPTT mean change from Baseline to Last Observed,[2]; [11],0.5 s
same,von Willebrand Factor mean change from Baseline to Last Observed,[2]; [11],10.88%
same,Factor IX mean change from Baseline to Last Observed,"[2]; All Subjects, mITT, Overall",−2.85%
same,Factor VIII mean change from Baseline to Last Observed,"[2]; All Subjects, mITT, Overall",−18.94%
same,Factor X mean change from Baseline to Last Observed,"[2]; All Subjects, mITT, Overall",−4.33%
same,Platelet Count mean change from Baseline to Last Observed,"[2]; All Subjects, mITT, Overall",−68.82 10^9/L
same,Thrombin-Antithrombin mean change from Baseline to Last Observed,"[2]; All Subjects, mITT, Overall",-2.69 µg/L
same,aPTT mean change from Baseline to Last Observed,"[2]; All Subjects, mITT, Overall",1.45 s
same,von Willebrand Factor mean change from Baseline to Last Observed,"[2]; All Subjects, mITT, Overall",6.76%
same,Factor IX mean change from Baseline to Last Observed,[2]; [12],−11.59%
same,Factor VIII mean change from Baseline to Last Observed,[2]; [12],−11.94%
same,Factor X mean change from Baseline to Last Observed,[2]; [12],−0.06%
same,Thrombin-Antithrombin mean change from Baseline to Last Observed,[2]; [12],1.48 µg/L
same,aPTT mean change from Baseline to Last Observed,[2]; [12],2.24 s
same,von Willebrand Factor mean change from Baseline to Last Observed,[2]; [12],2.88%
same,Factor IX mean change from Baseline to Last Observed,[2]; [13],6.44%
same,Factor VIII mean change from Baseline to Last Observed,[2]; [13],−26.38%
same,Factor X mean change from Baseline to Last Observed,[2]; [13],−8.88%
same,Thrombin-Antithrombin mean change from Baseline to Last Observed,[2]; [13],-7.13 µg/L
same,aPTT mean change from Baseline to Last Observed,[2]; [13],0.5 s
same,von Willebrand Factor mean change from Baseline to Last Observed,[2]; [13],10.88%
same,Factor IX mean change from Baseline to Last Observed,"[2]; All Subjects, mPP, Overall",−2.85%
same,Factor VIII mean change from Baseline to Last Observed,"[2]; All Subjects, mPP, Overall",−18.94%
same,Factor X mean change from Baseline to Last Observed,"[2]; All Subjects, mPP, Overall",−4.33%
same,Thrombin-Antithrombin mean change from Baseline to Last Observed,"[2]; All Subjects, mPP, Overall",-2.69 µg/L
same,aPTT mean change from Baseline to Last Observed,"[2]; All Subjects, mPP, Overall",1.45 s
same,von Willebrand Factor mean change from Baseline to Last Observed,"[2]; All Subjects, mPP, Overall",6.76%
same,coagulation factors (FIG. 3),[2]; Cushing's syndrome patients,improvement in coagulation factors
same,onset of improvement/normalization of abnormally elevated coagulation factors,[2]; treatment with relacorilant,as early as after one month
same,binding to the progesterone receptor,[3],lack of binding to the progesterone receptor
same,progesterone receptor affinity,[3]; evidence from Cushing's syndrome patient study,no evidence of relacorilant having any progesterone receptor affinity
